Laboratory results taken from patent US9611330B2, “Compositions and methods for cancer and cancer stem cell detection and elimination” (The Regents of the University of California, priority 2011, dated 2017).
Entries after “also recorded” stand apart in the source; their conditions may differ. Where two headings read alike, the source gives them in different places.

Tests used:
[1] = system: human blast crisis CML LSC; type: in vivo
Experimental: Human Progenitor Primagrafts and Treatment
Equal numbers of primary normal or blast crisis CML CD34^+ cells were transplanted intrahepatically into neonatal RAG2^−/−γc^−/− mice to form primagrafts, according to established methods^1, 3. At 8-12 weeks post-transplant, mice were treated with PF-04449913, Dasatinib, a combination of PF-04449913 and Dasatinib, or drug vehicle for 14 days followed by FACS analysis of human hematopoietic engraftment in hematopoietic tissues.
Nanofluidic phospho-proteomic immunoassay (NPI) experiments were performed with the NANOPRO 1000™ instrument (Cell Biosciences) and all samples were run in triplicate at least. The FIREFLY™ system first performed a charge-based separation (isoelectric focusing). Predicted pIs were calculated with SCANSITE™. Each sample was run on a panel of different pH gradients (pH 5-8) to optimize the resolution of different peak patterns. After separation and photo-activated in-capillary immobilization, GLI-2 was detected using GLI2-specific antibody (Abcam). A β2-microglubulin-specific antibody (β2M; Upstate) was used to normalize the amount of loaded protein. The peaks were quantified by calculating the area under the curve (AUC).
Primagrafts, in vivo Drug Treatment, and Engraftment Analysis
Immunocompromised RAG2^−/−γc^−/− mice were bred and maintained in the UC San Diego Moores Cancer Center vivarium. Neonatal mice were transplanted intrahepatically with normal progenitors or LSC from primary patient samples according to our previously published methods^19. Upon detection of tumor or peripheral blood engraftment, mice were treated daily by oral gavage with vehicle (50% 1,2 Propandiol, 50% HBSS or methylcellulose), PF-04449913 (100 mg/kg dissolved in vehicle), Dasatinib (50 mg/kg dissolved in vehicle), combination of PF-04449913 (100 mg/kg) and dasatinib (50 mg/kg). After treatment, mice were euthanized and single cell suspensions of hematopoietic tissues were analyzed for human engraftment by FACS as described previously^19, 20. Similarly, NOD.
Four vehicle-treated and four PF-04449913-treated samples constituting two sets of four technical replicates. The reads from the four RNA sequencing experiments under each treatment regimen were then combined for analysis of effects of vehicle and PF-04449913-treatment containing a total of 65M and 64M reads, respectively and compared with normal FACS purified cord blood CD34^+CD38^+Lin^− progenitors.
(§1) Single cell suspensions of bone marrow cells from mice treated with PF-0449913 or vehicle were immunostained with Alexa647-conjugated anti-human CD45 (BioLegend) in 2% fetal bovine serum/PBS followed by live cell staining using the LIVE/DEAD® Fixable Near-IR Dead Cell Stain Kit (Invitrogen). Surface stained cells were then fixed in 70% ethanol overnight. Fixed, surface stained cells were immunostained with FITC-conjugated anti-Ki-67 (Abcam, 1:100) in 0.15% saponin/2% fetal bovine serum/PBS, washed twice in saponin-containing staining media and incubated with 7-AAD (10 μg/mL in 0.1M sodium citrate/5 mM EDTA pH8.0/0.15M NaCl/0.5% BSA/0.02% saponin). Stained samples were analyzed using a FACSARIA™ and FLOWJO™^21.

[2] = system: normal human HSPC; assay: CD34+ cord blood engrafted NSG mice, 14-day treatment; type: in vivo; details: 100 mg/kg for 14 days
Experimental: Cg-Prkdc^scid Il2rg^tm1Wjl/SzJ female mice at 7-10 weeks were irradiated sublethally and transplanted with 100K CD34^+ human cord blood cells via retro-orbital injection. Eight weeks after transplantation of cord blood cells, the mice were treated for 14 days with either vehicle, or PF-04449913 via oral gavage.
as §1

[3] = system: Ptch+/−p53+/− medulloblastoma allografts; assay: Mouse medulloblastoma allograft model; type: in vivo; details: oral dosing
Source text: TAQMAN™ primer/probe sets (ABI) for FoxM1 (Mm00514924_ml), Gli1 (Mm00494645_ml), Gli2 (Mm01293117_ml), Mycn (Mm00476449_ml), Ptch1 (Mm00436026_ml), Ptch2 (Mm00436047_ml), Sfrp1 (Mm00489161_ml), Smo (Mm01162710_ml) and mouse GAPDH (4352339E), on the ABI 7900HT instrument. Target gene expression levels were normalized to mouse GAPDH and calibrated to vehicle treated mice to yield the relative quantitation (RQ) value. Selective Shh Inhibition in a Mouse Medulloblastoma Allograft Model Primary medulloblastoma tumors were harvested from Ptch^+/−p53^+/− or Ptch^+/−p53^−/− mice and propagated as allografts in SCID-bg mice 6-8 weeks of age (20 grams). Freshly isolated tumor fragments of approximately 50 mm^3 were surgically implanted subcutaneously into the hind flank region. Body weights and tumor size (length and width) were measured at regular intervals using a caliper and tumor volume was calculated using the formula: length (mm)×width (mm)×width (mm)×0.4. For the tumor growth inhibition studies, cohorts of Ptch^+/−p53^+/− medulloblastoma allograft bearing mice with tumors ranging from 200 mm^3 to 1000 mm^3 were dosed daily by oral gavage with vehicle (30% PEG 400/70% PBS) or with PF-04449913 formulated in vehicle.

[4] = system: Shh stimulated luciferase expression under an 8× Gli-response element; assay: Mouse embryonic fibroblast Gli-luciferase reporter assay (Gli-Luc MEFs); type: cell-based; details: n=5, read-out: IC50, inhibition of Shh stimulated luciferase reporter activity in Gli-Luc MEFs
Source text: Mouse Embryonic Fibroblast Gli-Luciferase Assay Mouse Embryonic Fibroblasts expressing luciferase under control of an 8× Gli-response element (Gli-Luc MEFs)^23 were obtained from the Pfizer transgenic core facility. Luciferase activity was quantified with an ENVISION™ plate reader (Perkin Elmer). Graphpad Prism was used for data analysis and IC50 calculation.

[5] = system: normal human cord blood HSPC; assay: Normal human HSPC in hematopoietic progenitor assays and SL/M2 co-culture; type: cell-based
Experimental: (§2) Normal or blast crisis CML CD34^+ cells were plated on confluent mitomycin-C treated SL/M2 cells with different doses of PF-04449913, dasatinib, a combination of PF-04449913 and dasatinib, or vehicle for […]. After 1 week of culture, FACS was used to quantify human progenitors and progenitors were FACS sorted into hematopoietic progenitor assays. Colonies were scored after 2 weeks in culture.
(§3) The mouse bone marrow stromal cells lines M2-10B4 (M2) and SL/SL (SL) were provided by StemCell Technologies on behalf of Dr. Donna Hogge in the Terry Fox Laboratory (Vancouver, British Columbia). One day prior to co-culture, the cell lines were treated with mitomycin-C (1 mg/ml) and plated in a 1:1 mixture in total concentration of 100,000/ml. 10,000-20,000 CD34^+ blast crisis CML or normal cells were then plated on adherent SL/M2 stromal cells, cultured for 7 days, and analyzed by FACS as described previously^19. To assess expansion of normal human HS/PCs, irradiated OP9 (M2 clone) stromal cells (20 Gray on a Saxon-Mark1 irradiator) were co-cultured with 50,000 human CD34^+ cord blood. OP9M2 stroma was grown in AlphaMem from Gibco with 20% Hyclone FBS, 1% pen strep glutamine and supplemented with cytokines: […] Flt3.

[6] = target: T1, human SMO (amino acids 181-787) (Homo sapiens, UniProt Q99835); assay: SMO radioligand competition binding assay
T1 construct: V5-His (named only in the vector, pSecTag-FRT/V5-His); expressed in transfected cells; membranes prepared
Experimental: SMO Radioligand Competition Binding Assay
Membranes were prepared from a stable cell line created in HEK293FlpIn-TetR cells (Invitrogen) using Flp recombinase-mediated insertion of the pSecTag-FRT/V5-His vector containing a cDNA encoding amino acids 181-787 of human Smo fused to the murine Igk leader sequence to produce a cell surface expressed […] protein. LacZ-negative cells were analyzed for binding a well characterized cyclopamine-competitive tritiated Smo antagonist^22. The tritiated ligand was prepared using Crabtree's catalyst and tritium gas. The labeled material was purified by RP HPLC (53.1 Ci/mmol specific activity at 99% purity). For the binding competition assay, 100 μl of assay buffer was added to all the wells of a 96 well GF/B filter plate (Millipore MULTISCREEN-HTS-FB™ cat # MSFBN6B50). The plates were counted in a TOPCOUNT™ scintillation counter (Perkin Elmer). Data analysis uses EXCEL™ for % Inhibition and GRAPHPAD PRISM™ for IC50 calculation.

[7] = system: blast crisis CML leukemic progenitors (LSC); assay: SL/M2 stromal co-culture of blast crisis CML LSC; type: cell-based, human; details: 7 days, vs vehicle (DMSO), p=0.047
Experimental: Stromal Co-Culture and in vitro Drug Treatment
as §2, §3

[8] = cell cycle FACS, bone marrow, 14 days

T1 sequence (Q99835 181-787): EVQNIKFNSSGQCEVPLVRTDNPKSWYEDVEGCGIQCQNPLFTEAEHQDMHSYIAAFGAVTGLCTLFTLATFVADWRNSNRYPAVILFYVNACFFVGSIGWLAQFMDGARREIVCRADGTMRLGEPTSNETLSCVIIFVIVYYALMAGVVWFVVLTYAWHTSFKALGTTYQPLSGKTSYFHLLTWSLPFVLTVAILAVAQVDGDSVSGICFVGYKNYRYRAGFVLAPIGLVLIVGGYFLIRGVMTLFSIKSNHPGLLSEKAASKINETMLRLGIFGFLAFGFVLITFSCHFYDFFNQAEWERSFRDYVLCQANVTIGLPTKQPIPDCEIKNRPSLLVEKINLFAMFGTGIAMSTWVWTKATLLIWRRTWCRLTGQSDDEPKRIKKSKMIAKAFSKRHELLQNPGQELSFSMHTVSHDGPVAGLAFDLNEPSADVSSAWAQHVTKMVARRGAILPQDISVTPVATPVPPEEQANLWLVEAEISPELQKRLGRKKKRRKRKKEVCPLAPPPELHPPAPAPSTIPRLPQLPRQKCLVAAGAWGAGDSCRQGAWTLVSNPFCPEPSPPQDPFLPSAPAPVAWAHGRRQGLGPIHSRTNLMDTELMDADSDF

With `CN1CC[C@@H](NC(=O)Nc2ccc(C#N)cc2)C[C@@H]1c1nc2ccccc2[nH]1` [PF-04449913] the spleen weight ([1]; 100 mg/kg daily, 14 days, p=0.006) was “significant decrease”, the body weight ([1]; 100 mg/kg oral gavage, 14 days) was “no evidence of weight loss” and the “GLI1 transcript level in FACS purified progenitors” value ([1]; 100 mg/kg, 14 days, p=0.056) was “reductions”. The “GLI2 transcript level in FACS purified progenitors” value ([1]; 100 mg/kg, 14 days, p=0.08) was “reductions”, the “expression of cell cycle regulators” value ([1]; RNA sequencing of engrafted leukemic progenitors, family wise p-value 0.02) was “repression of cell cycle regulators” and the “cell cycle gene isoforms shifting toward normal progenitor splice isoform pattern” value ([1]; RNA sequencing, Fisher exact test p=0.0006) was 75 of 110. The “sonic hedgehog pathway isoforms reverting to normal progenitor splice isoform pattern” value ([1]; RNA sequencing, Fisher exact test p=0.0048) was 37 of 50, the “fraction of leukemic progenitors in G0” value [1, 8] was “reduced the fraction of leukemic progenitors in G0” and the “fraction of leukemic progenitors in G1” value [1, 8] was “increase in the G1 fraction”. For the same molecule, the “human GLI protein expression” value ([1]; immunofluorescence and nanoproteomics (p=0.001), vs vehicle) was “reduced human GLI protein expression”, the “frequency of HSPC, myeloid and lymphoid cell fate commitment” value [2] was “remained comparable to vehicle treated controls” and the “human hematopoietic cell cycle status” value [2] was “unaltered”. The medulloblastoma growth ([3]; Ptch1+/−p53+/− allograft model) was “significantly reduce medulloblastoma growth”, the “Shh target gene expression in allograft” value ([3]; Ptch+/−p53+/− allografts) was “decreased Shh target gene expression” and the IC50 [4] was 6.8 nM. For the same molecule, the “percentage of normal HSPC” value ([5]; 7 days SL/M2 stromal co-culture) was “remained constant”, the “differentiation capacity of normal human HSPC” value ([5]; hematopoietic progenitor assays) was “unimpaired” and the IC50 ([6]; 4.3 nM+/−5.2 nM, N=5, read-out: IC50, SMO competition binding, value with spread) was 4.3 nM. For the same molecule, the IC50 ([6]; cyclopamine-competitive tritiated SMO antagonist, read-out: IC50, competition with radiolabeled SMO antagonist for binding to human SMO (amino acids 181-787)) was 4 nM and the “LSC / leukemic progenitor survival” value [7] was “significantly reduced; also recorded: reduction in blast crisis leukemic progenitor survival”.
